Laboratory results reported in patent US20150011623A1, “Pharmaceutical Composition Containing as Active Ingredient Extract From Bark of Liriodendron Tulipifera” (CHO DANG PHARM CO., LTD., priority 2012, published 2015).
Marks after values point to notes of the source that are not given here.

Test system: acetic acid inducing stomach ulcer model
Assay: acetic acid inducing stomach ulcer model
Type: in vivo, male white rats
Settings: for gastric lesion area: oral 30 mg/kg once a day for 10 days after operation; for lesion inhibition rate: oral 30 mg/kg once a day for 10 days, vs control group
From the text: Efficacy of extract from bark of Liriodendron tulipifera obtained in Preparation Example 1 has been measured according to acetic acid inducing stomach ulcer model. Only solvent has been administered into control group, while extract from the bark of Liriodendron tulipifera has been administered into experimental group. Further, ranitidine and rebamipide used for drug for treating stomach ulcer have been also administered into experimental group. The experiment has been carried out according to the method disclosed in Okabe and Pfeifferi, Did. Dis. 17, pp. 619-628, 1972. 250 g weights of male white rats have been anesthetized with ether and the stomach has been exposed. 50 μl of 20% acetic acid has been injected into the subserosa in fundus of stomach using microliter syringe. Then, the abdomen of rat has been sutured. The drug has been orally administered into the rats at 10:00 am once a day for 10 days after operation. After 4 hour from final administration, animals have been sacrificed by ether. After removing the stomach of rat, the stomach has been spread out. The lesion area has been measured using the photo from digital camera. Computer program Image J 1.38 (NIH, Bethesda, Md.) has been applied for measuring gastric lesion area (mm^2) The lesion inhibition rate and 50% effective dose (ED50) have been calculated as the same manner of HCl-EtOH model.

## O=C(NC(Cc1cc(=O)[nH]c2ccccc12)C(=O)O)c1ccc(Cl)cc1 (stereo not shown) [rebamipide]
  gastric lesion area: 40.1 ± 7.43 mm^2
  lesion inhibition rate: 39.1%

## CNC(=C[N+](=O)[O-])NCCSCc1ccc(CN(C)C)o1 [ranitidine]
  gastric lesion area: 34.8 ± 4.83* mm^2
  lesion inhibition rate: 47.1%
